Values of other authors in patent US20060229344A1, “Method of treating amyotrophic lateral sclerosis” (priority 2005, published 2006).

Key:
[1] = in vivo
[2] = in vivo; remark: listed apart in the source

absorption after oral administration: well absorbed
Structure (SMILES): Cc1cc(CCCOc2c(C)cc(-c3noc(C(F)(F)F)n3)cc2C)on1 [VP 63843, 3-[3,5-dimethyl-4-[[3-(3-methyl-5-isoxazolyl)propyl]oxy]phenyl]-5-(trifluoromethyl)-1,2,4-oxadiazole]
side-effects [1]: few side-effects | tolerability [1]: well tolerated | toxicity [1]: little toxicity | crossing into the central nervous system and gray matter [2]: crosses readily into the central nervous system and into gray matter
